This is an account of results in US20260345555A1, “Compositions and Methods for Protecting Salivary Glands from Off-Target Radiation Damage” (University of Rochester, priority 2022, published 2026).

The assay has as its system Reduced glutathione in salivary gland cell clusters (SGm). Nature of the assay: Glutathione assay in salivary gland tissue chip, 4 days post-radiation (15 Gy); also first screen of Selleck library at 100 μM. On Glutathione (radioprotection): key: +: radioprotection; ~: partial radioprotection; —: no radioprotection. The format is cell-based, mouse. To be noted: for Estimated EC50, Glutathione: nonlinear fit in Prism of dose response curves; for prevention of radiation-induced reduction of glutathione levels: 4 days post-radiation. In outline:
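Mouse submandibular gland cell clusters (20–100 μm) in PEG hydrogel on microbubble chips, cultured 4 days to form SGm, then dosed 30 min before and during 15 Gy irradiation and washed out 30 min after. Glutathione measured 4 days post-radiation; library compounds screened at 100 μM, hits matching 0 Gy levels.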

For the compound `CCn1cc(C(=O)O)c(=O)c2cc(F)c(N3CCNCC3)nc21` [Enoxacin (Penetrex)], the “radioprotection in dose response, glutathione assay” value (dose response, 15 Gy) was “protection only at higher concentrations”. The “Estimated EC50, Glutathione” value (15 Gy) is 2400 nM.
As for `CCCCC1C(=O)N(c2ccccc2)N(c2ccccc2)C1=O` [Phenylbutazone], the “concentration range of radioprotection, glutathione assay” value (dose response, 15 Gy) fell in the range of 0.1 to 100 µM. Also, the “Estimated EC50, Glutathione” value (15 Gy) was 80 nM.
Turning to `NCCCNCCS` [WR-1065], the “prevention of radiation-induced reduction of glutathione levels” value is reported as “ineffective” (0.1 mM, 15 Gy); “ineffective” (0.4 mM, 15 Gy); “significant protection” (1 mM, 15 Gy); “significant protection” (4 mM, 15 Gy). In addition, the “Glutathione (radioprotection)” value reads like this: (1 mM) “+”; (4 mM) “+”.
In the case of Doripenem hydrate, the “radioprotection in dose response, glutathione assay” value (dose response, 15 Gy) is given as “protection only at higher concentrations”. In addition, the “Estimated EC50, Glutathione” value (15 Gy) was 8600 nM.
